Test systems include DU-145 prostate; HCT-116 colon; MALME-3M melanoma; MDA-MB-435; SF-539 CNS; SK-MEL-2 melanoma; SNB-75 CNS; T-47D breast; UACC-62 melanoma; RPMI-8226 leukemia.
Common to all, as to assay: DTP human tumour cell line panel, 48 h

Where “and” joins values, the source holds several entries; their conditions need not be identical. Equal entries are not always repeated.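 Tested at 5 concentrations; 48 h exposure; 96-well plates; endpoints linearly interpolated, else capped at highest concentration. GI50 marks 50% less growth. TGI: total growth inhibition.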

Turning to `CCC/C(=N\NC(=S)N1CC2CCC(CC2)C1)c1ccccn1`, the TGI in the test on DU-145 prostate was 2.82 µM; in the test with HCT-116 colon, 0.86 µM; in the test on MALME-3M melanoma it was 2.76 µM and 1.99 µM; in the test with MDA-MB-435, 3.24 µM; with SF-539 CNS it was 1.55 µM and 5.36 µM; in the test on SNB-75 CNS, 3.21 µM and 2.18 µM. Besides, the TGI in the test on T-47D breast was 0.233 µM; with UACC-62 melanoma, 1.14 µM and 0.642 µM. Also, the GI50 was 1.16 µM in the test with SF-539 CNS, 1.02 µM in the test on SK-MEL-2 melanoma, 0.595 µM in the test with SNB-75 CNS and 0.0329 µM in the test on UACC-62 melanoma.

Take `COc1ccc2c(=O)cc(C(Cl)(Cl)Cl)oc2c1`: the GI50 in the test with DU-145 prostate was 0.309 µM; in the test with HCT-116 colon, 0.299 µM; with MALME-3M melanoma it was 5.71 µM; in the test on RPMI-8226 leukemia it was 0.389 µM; in the test on SF-539 CNS, 0.208 µM; in the test on SK-MEL-2 melanoma, 0.488 µM. Also, the figures for the GI50 in the test with SNB-75 CNS, with T-47D breast and with UACC-62 melanoma were 0.327 µM, 12.2 µM and 0.438 µM, respectively. Also, the TGI in the test with DU-145 prostate was determined as 0.971 µM; with HCT-116 colon, 14.3 µM; with MALME-3M melanoma it was 35.6 µM; in the test on RPMI-8226 leukemia, 3.82 µM; in the test on SF-539 CNS it was 0.583 µM; in the test on SK-MEL-2 melanoma, 26.4 µM. Moreover, the figures for the TGI in the test with SNB-75 CNS, with T-47D breast and in the test with UACC-62 melanoma were 15.1 µM, 55.3 µM and 17.5 µM, respectively.

In the case of `COc1cc(N(C)C)c(OC)cc1/C=C\c1ccnc2ccccc12`, the TGI in the test with DU-145 prostate is greater than 10 µM; in the test with HCT-116 colon it was greater than 10 µM; with MALME-3M melanoma it was greater than 10 µM; in the test on MDA-MB-435, 4.26 µM; with RPMI-8226 leukemia, 7.32 µM; in the test with SF-539 CNS, 6.48 µM. In addition, the TGI in the test with SK-MEL-2 melanoma is 8.03 µM; in the test on SNB-75 CNS, 9.62 µM; in the test with UACC-62 melanoma, greater than 10 µM.

Consider `C#Cc1c(/C=C/C(=O)OCC)ccc2ccccc12`, for which the GI50 is 28.9 µM in the test on DU-145 prostate; 26.2 µM in the test on HCT-116 colon; 13.1 µM with MALME-3M melanoma; 2.11 µM in the test on MDA-MB-435; 10.7 µM with RPMI-8226 leukemia; 22.3 µM with SF-539 CNS. Besides, the GI50 with SNB-75 CNS is 10.1 µM; with T-47D breast, 42.8 µM; in the test on UACC-62 melanoma it was 11.6 µM. For the same compound, the TGI in the test with DU-145 prostate was found to be 75.6 µM; with HCT-116 colon, 91.6 µM; in the test on MALME-3M melanoma, 41.2 µM; in the test with MDA-MB-435, 5.78 µM; in the test on RPMI-8226 leukemia, 29.3 µM; in the test on SF-539 CNS it was 48.9 µM. The values for the TGI in the test with SNB-75 CNS, in the test on T-47D breast and with UACC-62 melanoma were 40.4 µM, greater than 100 µM and 27.5 µM, respectively.

For `O=C(c1ccccc1)C(CN1CCCCC1)c1ccccc1` (stereo not given), the GI50 in the test on DU-145 prostate was 0.681 µM; with HCT-116 colon it was 1.13 µM; in the test on MALME-3M melanoma it was 1.44 µM; with MDA-MB-435, 1.67 µM; in the test on RPMI-8226 leukemia, 0.539 µM; in the test on SF-539 CNS it was 1.96 µM. Moreover, the GI50 with SK-MEL-2 melanoma is 2.85 µM; with SNB-75 CNS, 3.46 µM; in the test with UACC-62 melanoma it was 1.98 µM. The TGI was determined as 2.05 µM in the test with DU-145 prostate; 2.46 µM in the test with HCT-116 colon; 3.35 µM with MALME-3M melanoma; 4.19 µM in the test on MDA-MB-435; 2.88 µM in the test on RPMI-8226 leukemia; 3.94 µM in the test on SF-539 CNS. For the same compound, the TGI amounted to 8.73 µM in the test with SK-MEL-2 melanoma, 15.4 µM in the test with SNB-75 CNS and 4.8 µM with UACC-62 melanoma.

`COc1c2ccoc2c(OC)c2oc(=O)ccc12`: the TGI was greater than 100 µM in the test with DU-145 prostate; greater than 100 µM in the test on HCT-116 colon; greater than 100 µM with MDA-MB-435; greater than 100 µM in the test with RPMI-8226 leukemia; greater than 100 µM with SF-539 CNS; 63.6 µM with SNB-75 CNS. For the same compound, the concentration for total growth inhibition (TGI) in the test on T-47D breast and with UACC-62 melanoma was greater than 100 µM each time.

For `COc1cc(C2SCC(=O)N2c2ncc(C)s2)cc(OC)c1OC` (stereo not given), the GI50 with DU-145 prostate was 19.6 µM; with HCT-116 colon, 27.5 µM; with MDA-MB-435 it was 2.91 µM; in the test on RPMI-8226 leukemia, 17.2 µM; in the test with SF-539 CNS, 13.5 µM; in the test on SK-MEL-2 melanoma, greater than 50 µM. Moreover, the GI50 in the test on SNB-75 CNS is 14.4 µM; with UACC-62 melanoma, 12.5 µM. The concentration for total growth inhibition (TGI) in the test with DU-145 prostate was greater than 50 µM; in the test on HCT-116 colon, greater than 50 µM; in the test with MDA-MB-435, 24.9 µM; with RPMI-8226 leukemia it was greater than 50 µM; in the test on SF-539 CNS it was 43.9 µM; in the test with SK-MEL-2 melanoma, greater than 50 µM. Further, the concentration for total growth inhibition (TGI) in the test on SNB-75 CNS was greater than 50 µM; in the test on UACC-62 melanoma, 49.4 µM.

In the case of `CCN(CC)c1ccc(C(O)C2=CC(=O)c3ccccc3C2=O)cc1` (stereo not given), the GI50 with DU-145 prostate was 1.85 µM; in the test on HCT-116 colon, 1.76 µM; in the test with MALME-3M melanoma, 1.59 µM; with MDA-MB-435 it was 1.58 µM; with SF-539 CNS it was 2 µM; in the test with SK-MEL-2 melanoma, 1.57 µM. In addition, the values for the GI50 in the test on SNB-75 CNS, with T-47D breast and in the test on UACC-62 melanoma were 1.87 µM, 2.69 µM and 1.65 µM, respectively. Also, the TGI in the test with DU-145 prostate came to 4.27 µM; with HCT-116 colon, 3.14 µM; in the test with MALME-3M melanoma, 3.13 µM; in the test with MDA-MB-435, 2.99 µM; in the test with SF-539 CNS, 4.18 µM; in the test with SK-MEL-2 melanoma, 3.71 µM. The TGI in the test on SNB-75 CNS was 5.57 µM; in the test with T-47D breast, greater than 100 µM; in the test on UACC-62 melanoma, 3.34 µM.

Turning to `CC(=O)OC[C@@H](COC(=O)/C=C/c1ccc(O)cc1)OC1OC(CO)C(O)C(O)C1O` (stereo not given in full), the TGI with DU-145 prostate, in the test with HCT-116 colon, in the test with MALME-3M melanoma, in the test on RPMI-8226 leukemia, in the test with SF-539 CNS and in the test with SK-MEL-2 melanoma was greater than 100 µM each time. Moreover, the TGI with SNB-75 CNS and in the test with UACC-62 melanoma was greater than 100 µM each time.
